Measured values as given in patent publication US7119113B2, “Oxazoles as mGluR1 enhancers” (Hoffmann-La Roche Inc., priority 2002, dated 2006).

Experiments:
[1] = target: T1, rat mGlu 1a receptor (Rattus norvegicus, UniProt P23385); assay: [Ca2+]i measurement (FLIPR) on mGlu 1a transfected EBNA cells (headed "Binding Assay"); assay type: cell-based; details: rat mGlu 1a transiently transfected EBNA cells, Fluo-3 AM, activation (agonist) curves
T1 construct: expressed in transfected cells; host or cells: EBNA cells (transient transfection)
Description: The compounds of the present invention are group I mGlu receptor agonists. The compounds show activities, as measured in the below binding assay, of 0.2 μM or less.
cDNA encoding rat mGlu 1a receptor obtained from Prof. S. Nakanishi (Kyoto, Japan) was transiently transfected into EBNA cells using a procedure described by Schlaeger et al, New Dev. New Appl. Anim. Cell Techn., Proc. ESACT Meet., 15, (1998), 105–112 and 117–120. [Ca^2+]i measurements were performed on mGlu 1a transfected EBNA cells after incubation of the cells with Fluo-3 AM (0.5 μM final concentration) for 1 hour at 37° C. followed by 4 washes with assay buffer (DMEM supplemented with Hank's salt and 20 mM HEPES. [Ca^2+]i measurements were done using a fluorometric imaging plate reader (FLIPR, Molecular Devices Corporation, La Jolla, Calif., USA). When compounds were evaluated as antagonists they were tested against 10 μM glutamate as agonist.
The activation (agonists) curves were fitted with a four parameter logistic equation giving EC50, and Hill coefficient using the iterative non linear curve fitting software Origin (Microcal Software Inc., Northampton, Mass., USA).
In the table below are shown specific EC50 values of compounds of formula I: […]

[2] = Microsome incubation, rat liver microsomes (metabolic stability); assay type: in vitro ADME; details: for MAB (rat): maximal achievable bioavailability = 1−E (hepatic extraction ratio), extrapolated from rat microsomal clearance; for microsomal CLint at 10 μM: pH 7.4, rat liver microsomes 1.0 mg prot/mL, test compound 10 μM, 37° C., NADPH regenerating system, calculated from in vitro half-life, read-out: Intrinsic clearance (rat)
Description: (§1) The compounds of formula I of the present invention are further characterized by high metabolic stability. This parameter is a prerequisite for good bioavailability, which is necessary to obtain medicaments with acceptable in-vivo activity. The metabolic stability has been tested by the following method:
(§2) Incubation mixtures consisted of liver microsomes (rat 1.0 mg prot/mL or human 2.0 mg prot/mL), test compound 10 μM, MgCl2 (3.3 mM), and an NADPH regenerating system consisting of glucose-6-phosphate dehydrogenase, NADPH and glucose-6-phosphate (equivalent to 1 mM NADPH) in a total volume of 1.0 mL of potassium phosphate buffer 100 mM pH 7.4. Reactions were initiated by addition of the NADPH regenerating system at 37° C. At the time of 1, 5, 9, 13, 17, 21, 25, and 29 min a 5 μL aliquot was directly analysed on a HPLC-MS/MS system consisting of a HP 1100 quaternary pump with degasser and a PE-Sciex API-2000 MS/MS spectrometer. The analytical column was a Waters Symmetry Shield RP8 (2.1*50 mm with a […] particle size). A polarity non linear gradient from phase A (MeOH/Ac. Form.1% 20/80) to phase B (MeOH) was applied for a total run time of 2 minutes at a flow rate of 0.25 mL/min. The PE-Sciex API-2000 MS/MS spectrometer was used for detection of the parent compound. In vivo metabolic clearance was predicted according to published procedures [Houston, Biochem. Pharmacol. 47:1469–1479 (1994)]. In brief, the intrinsic clearance (Clearance, see table below) is calculated from the measured in vitro half-life taking into account incubation volume and microsomal protein used for the in vitro incubation. The intrinsic clearance is expressed in terms of μl/min/mg microsomal protein. For in vivo extrapolations, the hepatic extraction ratio (E) was calculated. Here it is reported the % MAB value which is equal to 1−E. The MAB (maximal achievable bioavailability) values express the maximal bioavailability that one can achieve with the given clearance values.

[3] = Microsome incubation, human liver microsomes (metabolic stability); assay type: in vitro ADME; details: for MAB (human): maximal achievable bioavailability = 1−E (hepatic extraction ratio), extrapolated from human microsomal clearance; for microsomal CLint at 10 μM: pH 7.4, human liver microsomes 2.0 mg prot/mL, test compound 10 μM, 37° C., NADPH regenerating system, calculated from in vitro half-life, read-out: Intrinsic clearance (human)
Description: as §1, §2

T1 sequence (P23385 19-1199): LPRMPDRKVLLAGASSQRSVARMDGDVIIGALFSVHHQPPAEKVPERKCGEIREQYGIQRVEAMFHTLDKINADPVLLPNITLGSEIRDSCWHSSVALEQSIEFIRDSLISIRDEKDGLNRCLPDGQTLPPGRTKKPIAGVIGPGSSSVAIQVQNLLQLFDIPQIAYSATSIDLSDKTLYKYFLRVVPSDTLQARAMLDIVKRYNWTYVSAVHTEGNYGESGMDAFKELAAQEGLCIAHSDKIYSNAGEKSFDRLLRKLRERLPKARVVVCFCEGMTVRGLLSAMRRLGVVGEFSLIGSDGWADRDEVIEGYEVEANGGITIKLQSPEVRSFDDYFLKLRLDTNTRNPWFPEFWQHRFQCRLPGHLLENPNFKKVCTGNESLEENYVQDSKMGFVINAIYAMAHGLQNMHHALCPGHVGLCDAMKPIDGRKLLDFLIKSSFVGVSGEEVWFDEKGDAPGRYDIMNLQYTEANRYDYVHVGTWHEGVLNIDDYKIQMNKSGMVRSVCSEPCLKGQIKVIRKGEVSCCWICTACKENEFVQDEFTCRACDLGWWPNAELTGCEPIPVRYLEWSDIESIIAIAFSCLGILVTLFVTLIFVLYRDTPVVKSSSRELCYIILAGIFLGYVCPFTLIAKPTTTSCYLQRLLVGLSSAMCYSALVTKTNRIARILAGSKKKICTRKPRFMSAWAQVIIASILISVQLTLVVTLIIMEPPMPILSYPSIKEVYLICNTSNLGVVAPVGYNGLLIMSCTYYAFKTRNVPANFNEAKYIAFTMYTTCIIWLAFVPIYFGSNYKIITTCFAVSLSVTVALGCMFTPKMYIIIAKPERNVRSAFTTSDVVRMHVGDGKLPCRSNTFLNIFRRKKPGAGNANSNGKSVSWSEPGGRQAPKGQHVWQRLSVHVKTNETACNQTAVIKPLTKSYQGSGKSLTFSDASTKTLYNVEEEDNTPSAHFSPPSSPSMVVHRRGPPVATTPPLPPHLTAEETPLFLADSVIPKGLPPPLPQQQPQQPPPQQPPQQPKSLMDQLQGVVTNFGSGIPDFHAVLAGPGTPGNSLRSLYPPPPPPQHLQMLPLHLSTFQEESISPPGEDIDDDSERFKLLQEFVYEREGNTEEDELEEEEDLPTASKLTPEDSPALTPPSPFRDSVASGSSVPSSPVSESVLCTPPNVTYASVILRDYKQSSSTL

Row | Structure (SMILES) | EC50 [1] [nM] | MAB (rat) [2] [%] | microsomal CLint at 10 μM [2] [µL/min/mg] | MAB (human) [3] [%] | microsomal CLint at 10 μM [3] [µL/min/mg] | melting point [°C]
1 | O=C(Nc1ncc(C(F)(F)F)o1)C1c2cc(F)ccc2Oc2ccc(F)cc21 [Example 10, 2,7-Difluoro-9H-xanthene-9-carboxylic Acid (5-trifluoromethyl-oxazol-2-yl)-amide] | 124 | 54 | 26.1 | 73 | 5.6 | 232
2 | O=C(Nc1nc(C(F)(F)F)co1)C1c2cc(F)ccc2Oc2ccc(F)cc21 [Example 9, 2,7-Difluoro-9H-xanthene-9-carboxylic Acid (4-trifluoromethyl-oxazol-2-yl)-amide] | 44 | 77 | 8.9 | 85 | 2.7 | 259
3 | O=C(Nc1nc(C(F)(F)F)co1)C1c2ccccc2Oc2c(Cl)cccc21 (racemic) [Example 14, (RS)-4-Chloro-9H-xanthene-9-carboxylic Acid (4-trifluoromethyl-oxazol-2-yl)-amide] | 93 |  |  |  |  | 212
4 | O=C(Nc1nc(C(F)(F)F)co1)C1c2ccccc2Oc2ccc(F)cc21 (racemic) [Example 3, (RS)-2-Fluoro-9H-xanthene-9-carboxylic Acid (4-trifluoromethyl-oxazol-2-yl)-amide] | 55 | 32 | 61.4 | 61 | 9.9 | 241
5 | O=C(Nc1nc(C(F)(F)F)co1)C1c2ccccc2Oc2ccccc21 [Example 1, 9H-Xanthene-9-carboxylic acid (4-trifluoromethyl-oxazol-2-yl)-amide] | 56 | 25 | 108 | 68 | 8 | 
6 | O=C(Nc1ncc(C(F)(F)F)o1)C1c2ccccc2Oc2cc(F)ccc21 (racemic) [Example 6, (RS)-3-Fluoro-9H-xanthene-9-carboxylic Acid (5-trifluoromethyl-oxazol-2-yl)-amide] |  | 52 | 27.8 | 63 | 9.2 | 250

Further lines, results first:

Row | EC50 [1] [nM] | MAB (rat) [2] [%] | microsomal CLint at 10 μM [2] [µL/min/mg] | MAB (human) [3] [%] | microsomal CLint at 10 μM [3] [µL/min/mg] | melting point [°C] | Structure (SMILES)
7 | 3 | 63 | 17.6 | 59 | 11.1 | 265 | O=C(Nc1nc(C(F)(F)F)co1)C1c2ccc(F)cc2Oc2cc(F)ccc21 [Example 11, 3,6-Difluoro-9H-xanthene-9-carboxylic Acid (4-trifluoromethyl-oxazol-2-yl)-amide]
8 | 25 | 72 | 11.6 | 63 | 9.1 | 249 | O=C(Nc1ncc(C(F)(F)F)o1)C1c2ccc(F)cc2Oc2cc(F)ccc21 [Example 12, 3,6-Difluoro-9H-xanthene-9-carboxylic Acid (5-trifluoromethyl-oxazol-2-yl)-amide]
9 | 16 | 48 | 32.8 | 67 | 7.9 | 233 | O=C(Nc1nc(C(F)(F)F)co1)C1c2ccccc2Oc2c(F)cccc21 (racemic) [Example 7, (RS)-4-Fluoro-9H-xanthene-9-carboxylic Acid (4-trifluoromethyl-oxazol-2-yl)-amide]
10 | 21 | 49 | 31.8 | 45 | 19.2 | 228 | O=C(Nc1ncc(C(F)(F)F)o1)C1c2ccccc2Oc2c(F)cccc21 (racemic) [Example 8, (RS)-4-Fluoro-9H-xanthene-9-carboxylic Acid (5-trifluoromethyl-oxazol-2-yl)-amide]
11 | 38 | 37 | 50 | 68 | 14 | 218 | O=C(Nc1ncc(C(F)(F)F)o1)C1c2ccccc2Oc2ccccc21 [Example 2, 9H-Xanthene-9-carboxylic Acid (5-trifluoromethyl-oxazol-2-yl)-amide]
12 | 15 |  |  |  |  | 235 | O=C(Nc1nc(C(F)(F)F)co1)C1c2ccccc2Oc2ccc(Cl)cc21 (racemic) [Example 13, (RS)-2-Chloro-9H-xanthene-9-carboxylic Acid (4-trifluoromethyl-oxazol-2-yl)-amide]
13 | 20 | 43 | 40.2 | 45 | 18.8 | 217 | O=C(Nc1ncc(C(F)(F)F)o1)C1c2ccccc2Oc2ccc(F)cc21 (racemic) [Example 4, (RS)-2-Fluoro-9H-xanthene-9-carboxylic Acid (5-trifluoromethyl-oxazol-2-yl)-amide]
14 | 40 | 46 | 34.3 | 78 | 4.3 | 221 | O=C(Nc1nc(C(F)(F)F)co1)C1c2ccccc2Oc2cc(F)ccc21 (racemic) [Example 5, (RS)-3-Fluoro-9H-xanthene-9-carboxylic Acid (4-trifluoromethyl-oxazol-2-yl)-amide]
